Data as given in patent US10961200B2, “Small molecule inhibitors of lactate dehydrogenase and methods of use thereof” (THE UNITED STATES OF AMERICA, AS REPRESENTED BY THE …, priority 2014, dated 2021).
pIC50: −log10 of the molar value.

Biological target: Human LDHA (Homo sapiens (Human), UniProt P00338)
Assay: human LDHA primary biochemical assay (resazurin/diaphorase coupled, fluorescence)
Conditions: LDHA inhibitory activity, activity level based on IC50 (Table 7)
From the text: Test compounds were placed in a Greiner Bio-One (Monroe, N.C.) 1536-well black solid bottom assay plate. 200 millimolar (mM) Tris HCl, pH 7.4, 100 micromolar […] EDTA and 0.01% TWEEN-20™, final concentration, was used as the assay buffer. The LDHA reagent was 2 nanomolar (nM) Human LDHA (Meridian Life Science, Inc., Memphis, Tenn.), final concentration, in assay buffer.

SMILES	pIC50
NS(=O)(=O)c1ccc(Cc2cn(-c3nc(C(=O)O)cs3)nc2-c2cccc(OCC3CCCO3)c2)cc1 (stereo not drawn) [Compound 463, 2-(4-(4-sulfamoylbenzyl)-3-(3-((tetrahydrofuran-2-yl)methoxy)phenyl)-1H-pyrazol-1-yl)thiazole-4-carboxylic acid]	> 7.00
NS(=O)(=O)c1ccc(Cc2cn(-c3nc(C(=O)O)cs3)nc2-c2cccc(Oc3ccccc3)c2)cc1 [Compound 464, 2-(3-(3-phenoxyphenyl)-4-(4-sulfamoylbenzyl)-1H-pyrazol-1-yl)thiazole-4-carboxylic acid]	> 7.00
NS(=O)(=O)c1ccc(Cc2cnn(-c3nc(C(=O)O)cs3)c2-c2ccc3ccccc3c2)cc1 [Compound 474, 2-(5-(naphthalen-2-yl)-4-(4-sulfamoylbenzyl)-1H-pyrazol-1-yl)thiazole-4-carboxylic acid]	> 7.00
NS(=O)(=O)c1ccc(Cc2cnn(-c3nc(C(=O)O)cs3)c2-c2cccnc2)cc1 [Compound 475, 2-(5-(pyridin-3-yl)-4-(4-sulfamoylbenzyl)-1H-pyrazol-1-yl)thiazole-4-carboxylic acid]	6.00 to 7.00
Cc1ccc(-c2cc(-c3nn(-c4nc(C(=O)O)cs4)cc3Cc3ccc(S(N)(=O)=O)cc3)ccc2F)cc1 [Compound 476, 2-(3-(6-fluoro-4′-methyl-[1,1′-biphenyl]-3-yl)-4-(4-sulfamoylbenzyl)-1H-pyrazol-1-yl)thiazole-4-carboxylic acid]	> 7.00
NS(=O)(=O)c1ccc(Cc2c(-c3ccc(F)c(-c4ccc(F)cc4)c3)nn(-c3nc(C(=O)O)cs3)c2C2CC2)cc1 [Compound 482, 2-(5-cyclopropyl-3-(4′,6-difluoro-[1,1′-biphenyl]-3-yl)-4-(4-sulfamoylbenzyl)-1H-pyrazol-1-yl)thiazole-4-carboxylic acid]	> 7.00
COc1cccc(-c2cc(-c3nn(-c4nc(C(=O)O)cs4)c(C4CC4)c3Cc3ccc(S(N)(=O)=O)cc3)ccc2F)c1 [Compound 483, 2-(5-cyclopropyl-3-(6-fluoro-3′-methoxy-[1,1′-biphenyl]-3-yl)-4-(4-sulfamoylbenzyl)-1H-pyrazol-1-yl)thiazole-4-carboxylic acid]	> 7.00
Cc1ccc(-c2cc(-c3nn(-c4nc(C(=O)O)cs4)c(C4CC4)c3Cc3ccc(S(N)(=O)=O)cc3)ccc2F)cc1 [Compound 484, 2-(5-cyclopropyl-3-(6-fluoro-4′-methyl-[1,1′-biphenyl]-3-yl)-4-(4-sulfamoylbenzyl)-1H-pyrazol-1-yl)thiazole-4-carboxylic acid]	> 7.00
Cc1ccc(-c2nn(-c3nc(C(=O)O)cs3)cc2Cc2ccc(S(N)(=O)=O)cc2)cc1-c1cccnc1 [Compound 486, 2-(3-(4-methyl-3-(pyridin-3-yl)phenyl)-4-(4-sulfamoylbenzyl)-1H-pyrazol-1-yl)thiazole-4-carboxylic acid]	> 7.00
Cc1ccc(-c2nn(-c3nc(C(=O)O)cs3)cc2Cc2ccc(S(N)(=O)=O)cc2)cc1-c1cccc(N)c1 [Compound 487, 2-(3-(3′-amino-6-methyl-[1,1′-biphenyl]-3-yl)-4-(4-sulfamoylbenzyl)-1H-pyrazol-1-yl)thiazole-4-carboxylic acid]	> 7.00
CCc1cccc(-c2cc(-c3nn(-c4nc(C(=O)O)cs4)cc3Cc3ccc(S(N)(=O)=O)cc3)ccc2C)c1 [Compound 488, 2-(3-(3′-ethyl-6-methyl-[1,1′-biphenyl]-3-yl)-4-(4-sulfamoylbenzyl)-1H-pyrazol-1-yl)thiazole-4-carboxylic acid]	6.00 to 7.00
Cc1ccc(-c2nn(-c3nc(C(=O)O)cs3)cc2Cc2ccc(S(N)(=O)=O)cc2)cc1-c1cc(F)cc(F)c1 [Compound 489, 2-(3-(3′,5′-difluoro-6-methyl-[1,1′-biphenyl]-3-yl)-4-(4-sulfamoylbenzyl)-1H-pyrazol-1-yl)thiazole-4-carboxylic acid]	6.00 to 7.00
Cc1ccc(-c2nn(-c3nc(C(=O)O)cs3)cc2Cc2ccc(S(N)(=O)=O)cc2)cc1-c1ccncc1 [Compound 490, 2-(3-(4-methyl-3-(pyridin-4-yl)phenyl)-4-(4-sulfamoylbenzyl)-1H-pyrazol-1-yl)thiazole-4-carboxylic acid]	6.00 to 7.00

Now from value to molecule:

pIC50	SMILES
6.00 to 7.00	Cc1ccc(-c2nn(-c3nc(C(=O)O)cs3)cc2Cc2ccc(S(N)(=O)=O)cc2)cc1-c1ccccc1 [Compound 491, 2-(3-(6-methyl-[1,1′-biphenyl]-3-yl)-4-(4-sulfamoylbenzyl)-1H-pyrazol-1-yl)thiazole-4-carboxylic acid]
6.00 to 7.00	Cc1ccc(-c2nn(-c3nc(C(=O)O)cs3)cc2Cc2ccc(S(N)(=O)=O)cc2)cc1-c1ccc(F)c(F)c1 [Compound 492, 2-(3-(3′,4′-difluoro-6-methyl-[1,1′-biphenyl]-3-yl)-4-(4-sulfamoylbenzyl)-1H-pyrazol-1-yl)thiazole-4-carboxylic acid]
6.00 to 7.00	Cc1cc(-c2cc(-c3nn(-c4nc(C(=O)O)cs4)cc3Cc3ccc(S(N)(=O)=O)cc3)ccc2C)ccc1F [Compound 493, 2-(3-(4′-fluoro-3′,6-dimethyl-[1,1′-biphenyl]-3-yl)-4-(4-sulfamoylbenzyl)-1H-pyrazol-1-yl)thiazole-4-carboxylic acid]
6.00 to 7.00	COc1ccc(-c2cc(-c3nn(-c4nc(C(=O)O)cs4)cc3Cc3ccc(S(N)(=O)=O)cc3)ccc2C)cc1F [Compound 494, 2-(3-(3′-fluoro-4′-methoxy-6-methyl-[1,1′-biphenyl]-3-yl)-4-(4-sulfamoylbenzyl)-1H-pyrazol-1-yl)thiazole-4-carboxylic acid]
6.00 to 7.00	Cc1cc(C)cc(-c2cc(-c3nn(-c4nc(C(=O)O)cs4)cc3Cc3ccc(S(N)(=O)=O)cc3)ccc2C)c1 [Compound 495, 2-(4-(4-sulfamoylbenzyl)-3-(3′,5′,6-trimethyl-[1,1′-biphenyl]-3-yl)-1H-pyrazol-1-yl)thiazole-4-carboxylic acid]
6.00 to 7.00	Cc1ccc(-c2cc(-c3nn(-c4nc(C(=O)O)cs4)cc3Cc3ccc(S(N)(=O)=O)cc3)ccc2C)cc1C#N [Compound 496, 2-(3-(3′-cyano-4′,6-dimethyl-[1,1′-biphenyl]-3-yl)-4-(4-sulfamoylbenzyl)-1H-pyrazol-1-yl)thiazole-4-carboxylic acid]
6.00 to 7.00	Cc1ccc(-c2nn(-c3nc(C(=O)O)cs3)cc2Cc2ccc(S(N)(=O)=O)cc2)cc1-c1cccc(F)c1 [Compound 497, 2-(3-(3′-fluoro-6-methyl-[1,1′-biphenyl]-3-yl)-4-(4-sulfamoylbenzyl)-1H-pyrazol-1-yl)thiazole-4-carboxylic acid]
6.00 to 7.00	Cc1ccc(-c2nn(-c3nc(C(=O)O)cs3)cc2Cc2ccc(S(N)(=O)=O)cc2)cc1-c1ccc(F)cc1 [Compound 498, 2-(3-(4′-fluoro-6-methyl-[1,1′-biphenyl]-3-yl)-4-(4-sulfamoylbenzyl)-1H-pyrazol-1-yl)thiazole-4-carboxylic acid]
> 7.00	Cc1ccc(-c2nn(-c3nc(C(=O)O)cs3)c(C3CC3)c2Cc2ccc(S(N)(=O)=O)cc2)cc1-c1cccnc1 [Compound 499, 2-(5-cyclopropyl-3-(4-methyl-3-(pyridin-3-yl)phenyl)-4-(4-sulfamoylbenzyl)-1H-pyrazol-1-yl)thiazole-4-carboxylic acid]
> 7.00	Cc1ccc(-c2nn(-c3nc(C(=O)O)cs3)c(C3CC3)c2Cc2ccc(S(N)(=O)=O)cc2)cc1-c1cccc(N)c1 [Compound 500, 2-(3-(3′-amino-6-methyl-[1,1′-biphenyl]-3-yl)-5-cyclopropyl-4-(4-sulfamoylbenzyl)-1H-pyrazol-1-yl)thiazole-4-carboxylic acid]
6.00 to 7.00	CCc1cccc(-c2cc(-c3nn(-c4nc(C(=O)O)cs4)cc3Cc3ccc(S(N)(=O)=O)cc3)ccc2F)c1 [Compound 513, 2-(3-(3′-ethyl-6-fluoro-[1,1′-biphenyl]-3-yl)-4-(4-sulfamoylbenzyl)-1H-pyrazol-1-yl)thiazole-4-carboxylic acid]
4.24 to 6.00	NS(=O)(=O)c1ccc(Cc2cn(-c3nc(C(=O)O)cs3)nc2-c2ccc(F)c(-c3cc(Cl)cc(Cl)c3)c2)cc1 [Compound 514, 2-(3-(3′,5′-dichloro-6-fluoro-[1,1′-biphenyl]-3-yl)-4-(4-sulfamoylbenzyl)-1H-pyrazol-1-yl)thiazole-4-carboxylic acid]
6.00 to 7.00	Cc1ccc(-c2cc(-c3nn(-c4nc(C(=O)O)cs4)cc3Cc3ccc(S(N)(=O)=O)cc3)ccc2F)cc1C [Compound 516, 2-(3-(6-fluoro-3′,4′-dimethyl-[1,1′-biphenyl]-3-yl)-4-(4-sulfamoylbenzyl)-1H-pyrazol-1-yl)thiazole-4-carboxylic acid]
6.00 to 7.00	NS(=O)(=O)c1ccc(Cc2cn(-c3nc(C(=O)O)cs3)nc2-c2ccc(F)c(-c3ccc(F)c(F)c3)c2)cc1 [Compound 517, 2-(4-(4-sulfamoylbenzyl)-3-(3′,4′,6-trifluoro-[1,1′-biphenyl]-3-yl)-1H-pyrazol-1-yl)thiazole-4-carboxylic acid]
> 7.00	COc1cc(-c2cc(-c3nn(-c4nc(C(=O)O)cs4)cc3Cc3ccc(S(N)(=O)=O)cc3)ccc2F)ccc1F [Compound 518, 2-(3-(4′,6-difluoro-3′-methoxy-[1,1′-biphenyl]-3-yl)-4-(4-sulfamoylbenzyl)-1H-pyrazol-1-yl)thiazole-4-carboxylic acid]
> 7.00	Cc1cccc(-c2cccc(-c3nn(-c4nc(C(=O)O)cs4)cc3Cc3ccc(S(N)(=O)=O)cc3)c2)c1 [Compound 519, 2-(3-(3′-methyl-[1,1′-biphenyl]-3-yl)-4-(4-sulfamoylbenzyl)-1H-pyrazol-1-yl)thiazole-4-carboxylic acid]
6.00 to 7.00	Cc1ccc(-c2cc(-c3nn(-c4nc(C(=O)O)cs4)cc3Cc3ccc(S(N)(=O)=O)cc3)ccc2F)cc1F [Compound 520, 2-(3-(3′,6-difluoro-4′-methyl-[1,1′-biphenyl]-3-yl)-4-(4-sulfamoylbenzyl)-1H-pyrazol-1-yl)thiazole-4-carboxylic acid]
